This note sets out measurements from patent publication US20070037830A1, “2-Adamantyl derivatives as p2X7 receptor antagonists” (ASTRAZENECA AB, priority 2003, published 2007).

SMILES strings stand for the structures.

The melting point is the temperature of the solid-liquid transition. Compound `O=C(CC1C2CC3CC(C2)CC1C3)Nc1cccc2[nH]ccc12` (centres unmarked) [Example 2, 2-(2-Adamantyl)-N-1H-indol-4-ylacetamide] came in with a melting point of 206 to 208 °C.
Consider `COc1ccc(C)c(NC(=O)CC2C3CC4CC(C3)CC2C4)c1` (centres unmarked) [Example 1, 2-(2-Adamantyl)-N-(5-methoxy-2-methylphenyl)acetamide], for which the melting point lay in the range of 193 to 196 °C.
